In patent publication US8629175B2, “Functional food additives” (priority 2009, dated 2014):

What was measured:
[1] = acute food intake experiment in rats; assay type: in vivo
Description: An acute experiment with rats has been conducted recently after complying with Swedish Ethical regulations. Seven groups of rats (n=4-5) were given an acute test dose (100-200 mg/kg) of the control vehicle (rapeseed oil) and test conjugates. Part of the results is shown here in FIG. 4.

[2] = antioxidant (antiradical) activity using DPPH radical
Description: The antioxidant (AO) activity of DAG-DHLA was determined using DPPH. radical following the published methods (Brand-Williams, W. et al. (1995). Lebensm. Wiss. U.-Technol. 28:25-30).
Antioxidant solution in toluene (0.1 mL) was added to 3.9 mL of a 6×10^−5 mol/L toluene DPPH. solution. Absorbance was determined at 515 nm at 0 min, and every 30 min until the reaction reached a plateau. For each DAG-DHLA concentration tested, the reaction kinetics was plotted. From this graph, the percentage of DPPH. remaining at the steady state was recorded and the values transferred onto another graph showing the percentage of residual DPPH. at the steady state as a function of the molar ratio of antioxidant to DPPH..

Row | EC50 (Efficient concentration), amount of antioxidant necessary to decrease the initial DPPH. concentration by 50% ([2]; 6×10^−5 mol/L DPPH. in toluene, steady state, 515 nm) | Structure (SMILES) | acute food intake ([1]; acute test dose 200 mg/kg, after 4 hours, compared to vehicle (rapeseed oil), FIG. 4) | Number of reduced DPPH. (1/EC100), DPPH. moles reduced by one mole of antioxidant ([2]; DPPH. in toluene) | Kinetic behaviour ([2]; reaction with DPPH. in toluene, absorbance at 515 nm) | acute food intake ([1]; acute test dose (100-200 mg/kg), compared with the DAG-DHLA result) | antioxidant activity (in words) ([2]; DPPH. in toluene, in parallel, compared with DAG-DHLA)
1 | 0.21 (mol/L) AO/(mol/L) DPPH. | CCCCCCCC/C=C\CCCCCCCC(=O)OCC(COC(=O)CCCCCCC/C=C\CCCCCCCC)OC(=O)CCCCC(S)CCS (stereo not drawn) [compound 2, 1,3-Dioleoyl-2-dihydrolipoate-sn-glycerol] | seems to block food intake | 2.34 | Rapid | – | –
2 | – | CCCCCCCC/C=C\CCCCCCCC(=O)OCC(COC(=O)CCCCCCC/C=C\CCCCCCCC)OC(=O)CCCCC1CCSS1 (stereo not drawn) [compound 1, 1,3-Dioleoyl-2-lipoyl-sn-glycerol] | – | – | – | Rather similar result | negligible antioxidant activity
